Source: patent US11219607B2, “Methods for suppressing cancer-related cachexia” (Ohio State Innovation Foundation, priority 2013, dated 2022)

Key:
Type in all cases: in vivo, CD2F1 mice
C-26 tumor-bearing mice [1] = experiment: C-26 colon adenocarcinoma model of cancer cachexia (body, muscle and tissue weights, tumor growth, food intake)
Description: (§1) In one aspect, tumors were established by subcutaneous injection of C-26 cells (0.5×10^6 cells in 0.1 ml) into the right flank of male CD2F1 mice (approximately 6 weeks of age; Harlan Laboratories, Indianapolis, Ind.)(11). Tumor-bearing mice, as well as tumor-free mice serving as non-cachectic controls, were randomized into groups that were treated with either AR-42 (50 mg/kg, p.o. by gavage, every other day; Arno Therapeutics, Inc., Flemington, N.J.) or vehicle (0.5% methylcellulose (w/v) and 0.1% Tween-80 (v/v) in sterile water) starting 6 days after cell injection. To investigate the effect of delayed treatment, treatments with drug and/or vehicle were started 6, 10 and 12 days after cancer cell injection.
In another aspect, subcutaneous tumors were established in male C57BL/6 mice (approximately 6 weeks of age; Harlan) by injection of 0.5×10^6 LLC cells into the right flank. Treatment with AR-42 and vehicle was performed as for the C-26 model beginning 6 days after cell injection. In both models, body weights and food consumption were monitored daily and tumor size was measured no less than every two days. Mice were fasted for 2 hours prior to sacrifice, at which time, hind limb muscles, heart, spleen, epididymal fat, and blood were collected and the weights of the solid tissues were measured. Muscle samples were frozen in liquid nitrogen-chilled 2-methylbutane and then stored at −80° C. until analysis.
In one aspect, mice were treated orally by gavage with AR-42 (50 mg/kg) or vehicle every other day starting 6 days after injection C-26 cells, when palpable tumors had formed. […] By the study endpoint (day 15), the magnitude of the weight loss, after deducting the mass of the tumors (1 cm^3 volume=1 gram mass), reached >20% for the vehicle-treated group, and 6% for AR-42-treated mice (center). […] The AR-42-treated mice, despite their large tumor burden, were alert, responsive, active, and lacked the hunched posture and rough haircoat observed in vehicle-treated counterparts by the end point of this study (FIG. 1B).
CD2F1 and C57BL/6 mice were group-housed under conditions of constant photoperiod (12-hour light/12-hour dark), temperature and humidity with ad libitum access to water and standard diet. Mice were briefly anesthetized (isoflurane, 3-4%) during administration of drugs (AR-42, vorinostat, vehicle) by oral gavage. Food consumption was estimated by weighing food in each cage daily and dividing the daily decrease in food by the number of mice in the cage. Tumor volumes were calculated from caliper measurements using a standard formula (length×width^2×π/6).

[2] = test system: leukemia inhibitory factor (LIF); experiment: Serum cytokine profiling, C-26 model: LIF; conditions: C-26 tumor-bearing mice, day 17; tumor-bearing/vehicle 19.7±9.3, tumor-free/vehicle 1.7±1.5
Excerpt: (§2) Gastrocnemius muscles and sera were collected at day 17 post-cell injection from each treatment group (n=8/group). Muscle was submitted to Metabolon, Inc. (Durham, N.C.) for metabolomic analysis of 270 metabolic intermediates via proprietary mass spectrometry platforms. Serum was submitted to Eve Technologies (Alberta, Canada) for analysis of 32 cytokines using a mouse cytokine array (32-plex panel).
To shed light onto the mechanism by which AR-42 mediated its anti-cachectic effect, sera and gastrocnemius muscle from vehicle- or AR-42-treated tumor-free and C-26 tumor-bearing mice were used for cytokine profiling analysis and whole transcriptome shotgun sequencing (RNA-seq), respectively.

C-26 tumor-bearing mice [3] = experiment: Survival and body weight comparison of HDAC inhibitors, C-26 model; conditions: day 21, 50 mg/kg every other day orally from day 6
Description: as §1
In another aspect, the effects of AR-42 were compared to other HDAC inhibitors. […]
The effects of AR-42 were compared to other HDAC inhibitors (i.e., vorinostat and romidepsin) in C-26 tumor-bearing mice. Starting on day 6 after tumor cell injection, mice were treated continuously with AR-42 (50 mg/kg every other day, orally), vorinostat [50 mg/kg once daily, orally (13)], romidepsin [0.6 mg/kg twice weekly, i.p. (14)], or vehicle, until weight loss, as determined by daily body weight measurements and subtraction of tumor mass, reached 20% of starting weight. […]

[4] = test system: gastrocnemius muscle fibers of C-26 tumor-bearing mice; experiment: Morphometric analysis of muscle fiber size, C-26 model; conditions: day 15, tumor-bearing/vehicle 1297.6±638.8, tumor-free control 2503.5±917.5, mean±S.D.
Description: Ten-μm sections were cut from frozen skeletal muscle samples using a cryostat (Leica) and then stained with H&E. Images were captured using an Olympus BX51 microscope (Olympus America, Inc.) and muscle fiber cross-sectional areas were determined using Olympus CellSens 1.11 software. Measurements were obtained from five different sections of muscle from each of five mice from each group.
The protective effect of AR-42 against muscle wasting was manifested by the abrogation of cachexia-induced reduction in skeletal muscle fiber size. […] The prominent shift in fiber size distribution to smaller cross-sectional area in cachectic muscles of tumor-bearing/vehicle mice was reversed by AR-42 (FIG. 2A, right)

[5] = test system: gastrocnemius muscles of C-26 tumor-bearing mice; experiment: Metabolomic profiling of gastrocnemius muscle, C-26 model; conditions: day 17, C-26 tumor-bearing mice
Excerpt: as §2
With cachexia, skeletal muscles undergo complex metabolic changes in response to tumor/host-derived inflammatory and neuroendocrine stressors (1). Accordingly, we conducted metabolic profiling analysis to investigate the effect of AR-42 on cachexia-induced shifts in metabolic phenotype in skeletal muscle. Tumor-free and C-26 tumor-bearing mice were treated with vehicle or AR-42 as aforementioned, and gastrocnemius muscles were collected at day 17 for metabolomic analysis.

C-26 tumor-bearing mice [6] = experiment: Delayed treatment in the C-26 model (body weight, tumor growth)
Description: as §1
In those experiments, treatment was initiated early in the progression of cachexia when overt signs of wasting were undetectable. To investigate whether later initiation of AR-42 treatment remains protective against cachexia, C-26 tumor-bearing mice were treated with AR-42 (50 mg/kg, p.o., every other day) starting at 6, 10 and 12 days after tumor cell injection.

[7] = 50 mg/kg p.o. every other day, vehicle 19%

CC(C)[C@H](C(=O)Nc1ccc(C(=O)NO)cc1)c1ccccc1 [AR-42, (S)—N-hydroxy-4-(3-methyl-2-phenylbutanamido)benzamide]
enlarged spleens (splenomegaly) in tumor-bearing mice (C-26 tumor-bearing mice [1]): not improved
loss of cardiac tissue mass in tumor-bearing mice (C-26 tumor-bearing mice [1]): ameliorated
tumor growth relative to vehicle (C-26 tumor-bearing mice [1]; 50 mg/kg p.o. every other day from day 6, 15-day study): did not alter tumor growth
magnitude of the weight loss after deducting the mass of the tumors (C-26 tumor-bearing mice [1]; 50 mg/kg p.o. every other day from day 6, study endpoint day 15, vehicle group >20%): 6%
reduction of tibialis anterior weight relative to tumor-free control mice (C-26 tumor-bearing mice [1]; day 15, tumor-bearing/vehicle 10.5%): 0.8%
reduction of quadriceps weight relative to tumor-free control mice (C-26 tumor-bearing mice [1]; day 15, tumor-bearing/vehicle 18.1%): 5.8%
reduction of gastrocnemius weight relative to tumor-free control mice (C-26 tumor-bearing mice [1]; day 15, tumor-bearing/vehicle 20.6%): 9.6%
loss of adipose tissue mass in tumor-bearing mice (C-26 tumor-bearing mice [1]; restored to a level comparable to tumor-free/AR-42 mice): restored the loss of adipose tissue mass
serum LIF level [2]: 3.8 ± 1.6 pg/mL
cumulative survival (weight loss below 20% of starting weight) (C-26 tumor-bearing mice [3]): 100%
mean cross-sectional area of muscle fibers [4]: 2146.3±923.4 μm^2
cachectic phenotype of free amino acids and amino acid metabolites [5]: reversed
glycogen metabolic intermediates (short-chain malto-oligosaccharides, glucose 1-phosphate) [5]: significantly replenished
intramuscular levels of glucose and key glycolytic intermediates ([5]; lowered in cachectic muscle): reversed these metabolic changes
2-hydroxybutyrate and ophthalmate levels in muscle ([5]; to levels comparable to tumor-free mice): dramatically reduced
loss of body weight (tumor excluded) by day 17, treatment starting at day 6 (C-26 tumor-bearing mice [6]; [7]): 6%
loss of body weight (tumor excluded) by day 17, treatment starting at day 10 (C-26 tumor-bearing mice [6]; [7]): 11%
loss of body weight (tumor excluded) by day 17, treatment starting at day 12 (C-26 tumor-bearing mice [6]; [7]): 12%
effect on tumor growth, delayed treatment experiment (C-26 tumor-bearing mice [6]; treatment from day 6, 10 or 12): without appreciable effects
